Experiments:
BmOR3 and BmOrco = assay: CalfluxVTN Ca2+ assay (BRET-based calcium sensor); type: cell-based, Bombyx mori
Method: HEK293 cells were cotransfected with plasmids encoding WT BmOR3 and BmOrco or their mutants, or AT1R together with CalfluxVTN probe. 24 h after transfection, cells were redistributed into 96-well flat-bottomed microplates. After another 24 h, cells were incubated with conventional buffer with Ca^2+ (135 mM NaCl, 5 mM KCl, 1 mM CaCl2, 5 mM D-glucose, 10 mM Hepes; pH = 7.4) or with Ca^2+-free buffer (135 mM NaCl, 5 mM KCl, 1 mM EGTA, 5 mM D-glucose, 10 mM Hepes; pH = 7.4), and stimulated with different concentrations of Bombykal (or AngII). The BRET ratio between Venus and Nluc was measured before (baseline) and after the addition of the Nluc substrate furimazine (5 μM) using a Mithras LB 940 multimode reader (Berthold Technologies). The BRET signal was calculated as ratio of emission of Venus (530 nm) to Nluc (460 nm). The baseline value was subtracted from the bombykal-stimulated BRET signal to obtain the ΔBRET value.

BmOR3 [1] = molecular target: T1, BmOR3 (Bombyx mori, UniProt Q5FBE0); assay: G protein dissociation BRET assay (TRUPATH probes); type: cell-based
T1 sequence (Q5FBE0 entry or part of it): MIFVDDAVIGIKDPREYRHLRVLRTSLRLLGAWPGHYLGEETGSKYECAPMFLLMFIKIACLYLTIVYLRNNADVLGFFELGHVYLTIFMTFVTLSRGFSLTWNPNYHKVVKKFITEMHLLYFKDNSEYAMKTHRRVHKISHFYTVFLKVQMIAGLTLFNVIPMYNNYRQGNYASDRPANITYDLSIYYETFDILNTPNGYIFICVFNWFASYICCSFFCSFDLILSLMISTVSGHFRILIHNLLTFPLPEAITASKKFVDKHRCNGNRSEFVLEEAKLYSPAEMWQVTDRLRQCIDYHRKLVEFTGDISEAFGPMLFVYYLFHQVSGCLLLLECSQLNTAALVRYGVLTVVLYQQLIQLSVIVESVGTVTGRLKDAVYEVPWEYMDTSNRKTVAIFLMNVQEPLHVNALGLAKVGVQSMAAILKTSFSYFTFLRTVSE
Method: The Gi, Gq, Go, Gs, and Gz dissociation BRET probes were from the TRUPATH kit, which was a gift from Bryan Roth (Addgene kit #1000000163 ([31])). HEK293 cells were cotransfected with BmOR3 along with specific G protein BRET probes. After 24 h, the cells were reseeded in 96-well microplates and incubated for another 24 h. The cells were washed twice with Hank's balanced salt solution and stimulated with bombykal at different concentrations for 2 min. The light emission of Rluc8 (400 nm) and GFP10 (510 nm) was measured after the addition of the substrate coelenterazine 400a (5 μM) using a Mithras LB 940 multimode reader (Berthold Technologies). The BRET signal was calculated as the ratio of light emission at 510/400 nm.

BmOR3 [2] = molecular target: T1, BmOR3; assay: GloSensor cAMP assay; type: cell-based; settings: BmOR3-transfected HEK293 cells, not in mock cells; 1 μM forskolin
Method: The GloSensor cAMP assay was performed as previously described ([40], [55], [56]). Briefly, HEK293 cells were transfected with the BmOR3 plasmid or empty vector pcDNA3.1 together with the GloSensor plasmid. 24 h after transfection, cells were distributed into 96-well microplates at a density of 50,000 cells/well. After another 24 h, the cells were incubated with DMEM containing 2% (v/v) GloSensor cAMP reagent for 2 h at 37 °C. Cells were then treated with varying concentrations of bombykal followed by the stimulation of 1 μM forskolin. The luminescence intensity was measured using an EnVision multi-label microplate detector (PerkinElmer).

BmOR3 [3] = molecular target: T1, BmOR3; assay: Western blotting of ERK and SRC phosphorylation; type: cell-based; settings: BmOR3-expressing HEK293 cells; 1 μM, 15 min; abrogated in β-arrestin siRNA-transfected cells
Method: HEK293 cells transfected with BmOR3 in the absence or presence of βarrestin1/2 siRNA were starved for 12 h at 37 °C before stimulated with 1 μM bombykal for 15 min. The cells were lysed in ice-cold lysis buffer (50 mM Tris-HCl, pH 7.4, 150 mM NaCl, 1 mM NaF, 1% Triton, 2 mM EDTA, 1% NP-40, 1% protease and phosphatase inhibitor cocktail), and the supernatant was collected after centrifugation. Proteins were separated by PAGE and transferred to PVDF membrane. After blocking in PBS containing 5% bovine serum albumin and 0.1% Tween-20, the membrane was incubated with the primary antibody at 4 °C overnight, followed by incubation with HRP conjugate–secondary antibody at RT for an hour. The signals were detected with the ECL system (Thermo Fisher Scientific). Primary antibodies were as follows: anti-ERK (Santa Cruz, Cat. No. sc-154); anti-pERK (Proteintech, Cat. No. 15361-1-AP); anti-SRC (Cell Signaling Technology, Cat. No. 2109S); anti-pSRC(Y416) (Cell Signaling Technology, Cat. No. 2101S); anti-beta actin (ORIGENE, Cat. No. TA811000); anti-βarrestin1(Proteintech, Cat. No. 15361-1-AP); anti-βarrestin2 (Proteintech, Cat. No. 10171-1-AP).

BmOR3 [4] = molecular target: T1, BmOR3; assay: Arrestin-kinase BRET assay; type: cell-based; settings: HEK293 cells transfected with BmOR3, BmArr-Rluc and YFP-tagged kinases; 1 μM, 10 min
Method: Twenty-four hours after transfection, cells were distributed into a 96-well microplate. After another 24 h, the cells were stimulated with 1 μM bombykal (for BmOR3-transfected cells) or 1 μM AngII for 10 min (for AT1R-transfected cells). BRET between RLuc and YFP was measured using a Mithras LB 940 multimode reader after the addition of the RLuc substrate coelenterazine h (5 μM). The BRET signal was calculated as the ratio of emission of YFP (530 nm) to RLuc (485 nm).

How did the “Ca2+ signal through BmOR3–BmOrco in the Ca2+-free incubating buffer” value (BmOR3 and BmOrco; 1 μM, Ca2+-free buffer versus Ca-containing buffer) turn out when `CCC/C=C\C=C\CCCCCCCCC=O` [bombykal] was run?
The value was “completely abolished”.

And the “Ca2+ response through BmOR3/BmOrco relative to that induced by angiotensin II through activating AT1R” value (BmOR3 and BmOrco; 1 μM, CalfluxVTN-expressing HEK293 cells, receptors expressed at similar levels)?
Its value is “approximately 70%”.

And the “calcium influx in response to stimulation” value (BmOR3 and BmOrco; HEK293 cells coexpressing BmOR3 and BmOrco, not with BmOR3 or BmOrco alone)?
The value was “elicited robust calcium influx”.

And the Go activation (BmOR3 [1]; HEK293 cells transfected with BmOR3, Go probes)?
Its Go activation is “did not induce”.

And the Gq activation (BmOR3 [1]; HEK293 cells transfected with BmOR3, Gq probes)?
The Gq activation was “did not induce”.

What about the Gs activation (BmOR3 [1]; HEK293 cells transfected with BmOR3, Gs probes) of the same compound?
Its Gs activation is “did not induce”.

And the Gz activation (BmOR3 [1]; HEK293 cells transfected with BmOR3, Gz probes)?
Its Gz activation is “did not induce”.

What about the EC50 (BmOR3 [1]; HEK293 cells, Gi BRET probes, 2 min stimulation, read-out: EC50 of Gi activation through BmOR3 (decrease of the BRET signal)) of the same compound?
Its EC50 is 0.0164 ± 0.00504 µM.

And the “forskolin-induced cAMP” value (BmOR3 [2])?
The value was “concentration-dependent decrease”.

What about the “phosphorylation level of ERK” value (BmOR3 [3]) of the same compound?
Its value is “significantly elevated”.

And the “phosphorylation level of SRC” value (BmOR3 [3])?
The value was “significantly elevated”.

What about the “association of β-arrestin with ERK, SRC, and AKT” value (BmOR3 [4]) of the same compound?
Its value is “increased association”.

Reference: paper PMC8477192, “An ionic lock and a hydrophobic zipper mediate the coupling between an insect pheromone receptor BmOR3 and downstream effectors” (The Journal of Biological Chemistry, 2021)
